According to patent publication US20150030683A1, “FORMULATIONS AND METHODS FOR THE TREATMENT OR PROPHYLAXIS OF PRE-MCI AND/OR PRE-ALZHEIMER'S CONDITIONS” (BUCK INSTITUTE FOR RESEARCH ON AGING, priority 2012, published 2015):

Experiments:
[1] = Degradation in brain tissue; assay type: in vitro ADME; settings: probably reduced at the disulfide bond
[2] = Brain uptake testing (PK): plasma and brain levels by LC/MS/MS; parameters: species or system mice; settings: mouse, in vivo, sc; for Kp: 10 mg/kg
Procedure: In general, CNS exposure studies consisted of collection of heparinized plasma and brains after treatment with tropisetron, nimetazepam, disulfiram and honokiol following subcutaneous (sc) administration of the molecules at 10 mg/kg. Plasma and brain levels of the agent(s) were determined by quantitative LC/MS/MS methodology, conducted at Integrated Analytical Solutions (on the internet at ianalytical.net). Plasma samples were precipitated with acetonitrile:methanol (1:1) cocktail containing an internal standard. The brain samples were homogenized directly in ethylacetate or extracted from 5M guanidine homogenates using the liquid-liquid method. The resulting supernatant were evaporated to dryness and subjected to the LC/MS/MS analysis. For each agent 3 mice were used for analysis. The brain-to-plasma ratios and brain levels were then be calculated to identify the best candidate(s) for further testing.

[3] = tested on: 7W cells stably transfected with APP; experiment: […] assay in 7W APP transfected cells; assay type: cell-based; settings: 1 μM agent, 24 h
Procedure: 7W CHO cells were seeded at 50,000 cells/well in a 96 wells plate for 24 h. Then their medium was changed for fresh medium supplemented with 1 μM of the agent(s) of interest (e.g., tropisetron, disulfiram, honokiol, and/or nimetazepam). After 24 h, 20 μl of the medium was added to 2 μl of the complete protease inhibitor with 1 μM EDTA and kept at 4° C. until analysis. 2 μl of that medium was treated with the Perkin Elmer (PE) […]® Aβ kit to determine the amount of Aβ42 secreted by the cells in 24 h using the PE-Enspire reader. Another aliquot of 2 μl of the medium was diluted with 50 μl of the PE […]® buffer and was treated with the PE […]® sAPPαkit to determine the amount of sAPPαsecreted by the cells in 24 h. For the assay, 2 μl of the final mixture was treated with the acceptor bead and the donor antibody followed by addition of the donor beads and the […]® signal was measured using a PE-Enspire reader. For measurement of APPneo, the 50,000 cells were treated after seeding with fresh medium supplemented with or without the agent(s), but without fetal bovine serum (FBS), in order to induce the formation of the APPneo fragment. After 24 h the medium was removed, the cells on the bottom of the wells were washed three times with phosphate buffered saline (PBS) and then lysed with 50 μl of the Perkin Elmer […]® buffer and with 10% of the complete protease inhibitor with EDTA. […]

[4] = tested on: sAPPα, Aβ40 and Aβ42 levels; experiment: Aβ40/42, sAPPα levels in brain (PD) of Alzheimer's disease transgenic mice (PDAPP model); assay type: in vivo; settings: Tg mice; for sAPPα levels in hippocampus (Hip) and entorhinal cortex (ECx) / Aβ40 levels / Aβ42 levels: 10 mpk sc, 5 days
Procedure: […]® kits from Perkin Elmer (PE) were used to quantify sAPPα (cat#: AL254C), sAPPβ (cat#: AL232C), Aβ40 (cat #: AL275C), Aβ42 (cat #: AL276C) and Tau (cat#: AL271C) from brain homogenates. The samples are added to an AlphaPlate-384 (cat#: 6005350). Twenty microliters (μl) of acceptor bead antibody mix was added to each five μl cerebrospinal fluid (CSF) sample and allowed to incubate for one hour at room temperature. Next, 25 μl of donor beads were added and allowed to incubate in the dark for 30 minutes at room temperature. Fluorescence was then measured on an EnsPire 96-well plate reader (Perkin-Elmer).
ELISA kits from Invitrogen were also used to quantify Aβ1-40 (KHB3481) and Aβ1-42 (KHB3544) in duplicate from the CSF samples stored at −80° C. For assay, samples were thawed on ice and BSL-2 precautions practiced at all times. For the human Aβ 1-42 ultrasensitive ELISA, samples were diluted 1:2 (50 μl CSF plus 50 μl kit-provided standard diluent buffer). For the human Aβ1-40 ELISA, samples were diluted 1:15 (6.7 μl CSF plus […] of standard diluent buffer). Assays were performed according to manufacturer's instructions. In short, standards and samples were added to a plate pre-coated with a monoclonal capture antibody specific for the amino terminus of Hu Aβ. The samples were co-incubated with a rabbit detection antibody (Ab) specific for the carboxy terminus of the Aβ species being assayed for 3 hr at room temperature (Aβ 1-40) to overnight at 4° (Aβ 1-42) with gentle rocking After washing, bound rabbit Ab was detected using a horseradish peroxidase-labeled anti-rabbit secondary Ab. After washing again, bound HRP-anti rabbit Ab was detected colorimetrically (Spectramax 190, Molecular Devices) by the addition of a substrate solution. 1 mM 4-(2-Aminoethyl)benzenesulfonyl fluoride hydrochloride (AEBSF) protease inhibitor (101500, Calbiochem) was added to standards and samples.
In general, as part of the CNS exposure studies in Alzheimer's disease transgenic (Tg) mice (e.g., the PDAPP mouse model of Alzheimer's disease), tropisetron, nimetazepam, disulfiram and honokiol effects on biomarkers were also measured. In case of tropisetron the testing was done at 0.3 mpk, while in case of the other agent(s) (e.g., nimetazepam, disulfiram and honokiol) it was done at 10 mpk. From the collected brains the hippocampi were dissected. Levels of sAPPα, and Aβ1-40 and Aβ1-42 were measured by […] assay ([…] Perkin-Elmer), and Aβ1-42 (Invitrogen, sensitive ELISA kit) in brain homogenates of Tg mice. All procedures involved have been described (Galavan 2006, Proc Natl Acad Sci USA, 103, 7130-7135). […] The brain-to-plasma ratio (PK) of tropisetron and sAPPalpha/Aβ42 ratios (PD) were then determined.

MBP-eAPP230-624 = biological target: T1, MBP-eAPP230-624 (Homo sapiens, UniProt P05067); experiment: Small-angle X-ray scattering of MBP-eAPP230-624 incubated with the agent; assay type: binding; settings: for MWcalc/MWseq / Rg (radius of gyration) / Dmax (maximum dimension): MBP-eAPP230-624 incubated with 50 μM agent, 4° C., 1 hour; for MWcalc/MWseq: ± 0.2; for Rg (radius of gyration): ± 2; for Dmax (maximum dimension): ± 10; for Binding to APP (MBP-eAPP230-624) and effect on conformation/dimerization: small-angle X-ray scattering, 50 μM agent
T1 construct: purified MBP-eAPP230-624 were incubated with 50 μM Disulfiram or 50 μM Sulfiram
Procedure: To 100 μg of purified MBP-eAPP230-624 were incubated with 50 μM Disulfiram or 50 μM Sulfiram in 20 mM sodium phosphate pH 7.4, 137 mM sodium chloride, 0.05% dimethyl sulfoxide at 4° C. for 1 hour. The control sample was incubated in the buffer alone. The samples were then concentrated to approximately 1.5 mg/ml using […] NML concentrators. Small-angle X-ray scattering data were collected using protein concentrations in the range of 0.25-1.5 mg/ml and an X-ray wavelength of 1.11 Å at beam line 12.3.1 (Advanced Light Source). Samples of the filtrate were used for buffer subtraction. Data were integrated with software customized for the beam line and processed with the program PRIMUS (Konarev (2003) Journal of Applied Crystallography 36, 1277-1282). The program GNOM (Svergun (1992) J. Appl. Crystallogr. 25, 495-503) was used to calculate the maximum dimension and the radius of gyration and to estimate the intensity of the scattering at zero angle for higher concentration samples. The molecule weight of each protein was calculated by comparing to the scattering of proteins of known molecule weight.
The apparent drop in molecular weight and maximum dimension (Dmax) are consistent with both sulfiram and disulfiram disrupting the MBP-eAPP230-624 dimers.

[5] = known for the benzodiazepine; cited from earlier work

T1 sequence (P05067 230-624 isoform P05067-4): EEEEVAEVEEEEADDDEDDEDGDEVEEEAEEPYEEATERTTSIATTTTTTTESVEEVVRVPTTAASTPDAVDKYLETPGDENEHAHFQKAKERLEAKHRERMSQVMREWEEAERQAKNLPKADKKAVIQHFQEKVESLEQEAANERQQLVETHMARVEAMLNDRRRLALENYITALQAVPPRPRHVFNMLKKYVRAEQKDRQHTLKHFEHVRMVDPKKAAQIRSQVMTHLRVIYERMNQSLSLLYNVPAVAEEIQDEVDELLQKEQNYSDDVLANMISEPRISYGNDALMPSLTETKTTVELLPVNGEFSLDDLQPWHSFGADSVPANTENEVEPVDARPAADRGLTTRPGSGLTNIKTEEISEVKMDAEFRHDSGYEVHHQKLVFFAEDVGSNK

Structure (SMILES) | Stability in brain tissue [1] | blood-brain-barrier / brain penetration [2] | Kp [2] | sAPPα levels secreted by 7W cells [3] | Aβ levels ([4]; 10 mpk) | sAPPα levels in hippocampus (Hip) and entorhinal cortex (ECx) [4] | MWcalc/MWseq (MBP-eAPP230-624) | Rg (radius of gyration) (MBP-eAPP230-624) [Å] | Dmax (maximum dimension) (MBP-eAPP230-624) [Å] | Binding affinity compared with sulfiram (MBP-eAPP230-624; inferred from greater effect in X-ray scattering) | Binding to APP (MBP-eAPP230-624) and effect on conformation/dimerization (MBP-eAPP230-624) | Binding to APP (MBP-eAPP230-624) and effect on conformation/dimerization (MBP-eAPP230-624; listed as disulfiram) | blood-brain-barrier crossing [5] | Aβ40 levels [4] | Aβ42 levels [4] | sAPPα levels in hippocampus (Hip) and entorhinal cortex (ECx) ([4]; 10 mg/kg) | sAPPα levels in hippocampus (Hip) and entorhinal cortex (ECx) ([4]; listed as nimetazepam, 10 mg/kg)
CCN(CC)C(=S)SSC(=S)N(CC)CC [Disulfiram, 1,1′,1″,1′″-[disulfanediylbis(carbonothioylnitrilo)]tetraethane] | degrades rapidly | low blood-brain-barrier penetration | < 0.1 | increase | no changes | no changes | 1.5 | 51 | 160 | higher binding affinity | can bind to APP and disrupt APP dimerization | bind to MBP-eAPP230-624 and alter the conformation of the protein | – | – | – | – | –
CN1C(=O)CN=C(c2ccccc2)c2cc([N+](=O)[O-])ccc21 [Nimetazepam, 2-methyl-9-nitro-6-phenyl-2,5-diazabicyclo [5.4.0]undeca-5,8,10,12-tetraen-3-one] | – | – | – | – | – | – | – | – | – | – | – | – | known to cross the blood-brain-barrier well | No significant changes | No significant changes | significant increase | increase
C=CCc1ccc(O)c(-c2ccc(O)c(CC=C)c2)c1 [Honokiol, 2-(4-hydroxy-3-prop-2-enyl-phenyl)-4-prop-2-enyl-phenol] | – | penetrates the brain well | ~1 | – | – | no significant increase | – | – | – | – | – | – | – | No significant changes | No significant changes | – | –
CCN(CC)C(=S)SC(=S)N(CC)CC [Sulfiram] | – | – | – | – | – | – | 1.7 | 53 | 170 | – | bind to MBP-eAPP230-624 and alter the conformation of the protein | – | – | – | – | – | –
